Data taken from patent US7605156B2, “Methods for the use of inhibitors of cytosolic phospholipase A2” (Wyeth, priority 2001, dated 2009).

Target: T1, cPLA2 (Homo sapiens, UniProt P47712)
T1 sequence (P47712 1-749): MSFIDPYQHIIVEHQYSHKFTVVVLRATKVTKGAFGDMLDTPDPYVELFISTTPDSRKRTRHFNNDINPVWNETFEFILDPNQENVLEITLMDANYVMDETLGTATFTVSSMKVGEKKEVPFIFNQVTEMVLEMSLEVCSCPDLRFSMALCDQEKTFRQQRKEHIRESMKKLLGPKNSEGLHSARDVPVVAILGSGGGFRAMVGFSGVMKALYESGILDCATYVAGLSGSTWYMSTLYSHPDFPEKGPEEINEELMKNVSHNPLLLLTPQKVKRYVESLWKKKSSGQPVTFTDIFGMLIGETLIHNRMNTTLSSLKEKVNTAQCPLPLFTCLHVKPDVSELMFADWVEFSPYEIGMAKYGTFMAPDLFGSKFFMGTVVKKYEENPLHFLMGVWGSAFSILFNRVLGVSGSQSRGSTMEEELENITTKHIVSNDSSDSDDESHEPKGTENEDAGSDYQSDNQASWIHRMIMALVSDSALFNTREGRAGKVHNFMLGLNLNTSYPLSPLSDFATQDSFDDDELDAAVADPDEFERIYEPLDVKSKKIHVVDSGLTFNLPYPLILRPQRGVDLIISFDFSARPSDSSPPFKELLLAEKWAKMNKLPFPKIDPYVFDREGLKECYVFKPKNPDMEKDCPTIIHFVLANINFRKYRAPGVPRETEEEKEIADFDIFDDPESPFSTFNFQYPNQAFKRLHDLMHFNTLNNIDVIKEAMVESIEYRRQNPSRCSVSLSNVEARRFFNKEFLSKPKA
Assay: Coumarine assay (hydrolysis of 7-hydroxycoumarinyl 6-heptenoate)
Type: biochemical
Details: 60 μM 7-hydroxycoumarinyl 6-heptenoate, pH 7.5; read-out: Coumarin IC50

Compound	IC50 [nM]
4-(2-{1-benzhydryl-5-chloro-2-[2-({[(5,6-dichloropyridine-2-yl)methyl]sulfonyl}amino)ethyl]-1H-indol-3-yl}ethoxy)benzoic acid [Example 76]	400
4-(3-{2-[2-({[2-(aminomethyl)phenyl]sulfonyl}amino)ethyl]-1-benzhydryl-5-chloro-1H-indol-3-yl}propyl)benzoic acid [Example 156]	160
4-[2-(1-benzhydryl-5-chloro-2-{2-[({2-[(3R,5S)-3,5-dimethylmorpholin-4-yl]ethyl}sulfonyl)amino]ethyl}-1H-indol-3-yl)ethoxy]benzoic acid [Example 250]	2100
4-{2-[1-benzhydryl-5-chloro-2-(2-{[(2,6-dimethylbenzyl)sulfonyl]amino}ethyl)-1H-indol-3-yl]ethoxy}benzoic acid [Example 279]	160
O=C(O)c1ccc(OCCc2c(CCNS(=O)(=O)Cc3cccc(C(F)(F)F)c3)n(C(c3ccccc3)c3ccccc3)c3ccc(Cl)cc23)cc1 [Example 12]	150000
O=C(O)c1ccc(OCCc2c(CCNS(=O)(=O)Cc3ccccc3)n(C(c3ccccc3)c3ccccc3)c3ccc(N4CCOCC4)cc23)cc1 [Example 33, 4-[2-(1-benzhydryl-2-{2-[(benzylsulfonyl)amino]ethyl}-5-morpholin-4-yl-1H-indol-′3-yl)ethoxy]benzoic acid]	2900
O=C(O)c1ccc(OCCc2c(CCNS(=O)(=O)Cc3cccc(C(F)(F)F)c3)n(C(c3ccccc3)c3ccccc3)c3ccc(Cl)cc23)cc1 [Example 47, 4-(2-{1-benzhydryl-5-chloro-2-[2-({[3-(trifluoromethyl)benzyl]sulfonyl}amino)ethyl]-1H-indol-3-yl}ethoxy)benzoic acid]	580
O=C(O)c1ccc(CCCc2c(CCNS(=O)(=O)Cc3ccccc3[N+](=O)[O-])n(C(c3ccccc3)c3ccccc3)c3ccc(Cl)cc23)cc1 [Example 56, 4-{3-[5-Chloro-1-(diphenylmethyl)-2-(2-{[(2-nitrobenzyl)sulfonyl]amino}ethyl)-1H-indol-3-yl]propyl}benzoic acid]	130
O=C(O)c1ccc(CCCc2c(CCNS(=O)(=O)Cc3ccc(Cl)cc3)n(C(c3ccccc3)c3ccccc3)c3ccc(Cl)cc23)cc1 [Example 60, 4-{3-[1-benzhydryl-5-chloro-2-(2-{[(4-chlorobenzyl)sulfonyl]amino}ethyl)-1H-indol-3-yl]propyl}benzoic acid]	150
O=C(O)c1ccc(CCCc2c(CCNS(=O)(=O)c3ccc(Cl)cc3Cl)n(C(c3ccccc3)c3ccccc3)c3ccc(Cl)cc23)cc1 [Example 152, 4-{3-[1-benzhydryl-5-chloro-2-(2-{[(2,4-dichlorophenyl)sulfonyl]-amino}ethyl)-1H-indol-3-yl]propyl}benzoic acid]	320
O=C(O)c1ccc(CCCc2c(CCNS(=O)(=O)c3c(Cl)cccc3Cl)n(C(c3ccccc3)c3ccccc3)c3ccc(Cl)cc23)cc1 [Example 153, 4-{3-[1-benzhydryl-5-chloro-2-(2-{[(2,6-dichlorophenyl)sulfonyl]amino}ethyl)-1H-indol-3-yl]propyl}benzoic acid]	160
O=C(O)c1ccc(CCCc2c(CCNS(=O)(=O)c3c(Cl)cc(Cl)cc3Cl)n(C(c3ccccc3)c3ccccc3)c3ccc(Cl)cc23)cc1 [Example 154, 4-{3-[1-benzhydryl-5-chloro-2-(2-([(2,4,6-trichlorophenyl)sulfonyl]amino}ethyl)-1H-indol-3-yl]propyl}benzoic acid]	350
N#Cc1ccccc1S(=O)(=O)NCCc1c(CCCc2ccc(C(=O)O)cc2)c2cc(Cl)ccc2n1C(c1ccccc1)c1ccccc1 [Example 155, 4-{3-[1-benzhydryl-5-chloro-2-(2-{[(2-cyanophenyl)sulfonyl]amino}ethyl)-1H-indol-3-yl]propyl}benzoic acid]	450
O=C(O)c1ccc(CCCc2c(CCNS(=O)(=O)c3ccccc3Br)n(C(c3ccccc3)c3ccccc3)c3ccc(Cl)cc23)cc1 [Example 158, 4-{3-[1-benzhydryl-2-(2-{[(2-bromophenyl)sulfonyl]amino}ethyl)-5-chloro-1H-indol-3-yl]propyl}benzoic acid]	200
O=C(O)c1ccc(OCCc2c(CCNS(=O)(=O)c3ccc(Cl)cc3Cl)n(C(c3ccccc3)c3ccccc3)c3ccc(Cl)cc23)cc1 [Example 159, 4-{2-[1-benzhydryl-5-chloro-2-(2-{[(2,4-dichlorophenyl)sulfonyl]amino}ethyl)-1H-indol-3-yl]ethoxy}benzoic acid]	650
O=C(O)c1ccc(OCCc2c(CCNS(=O)(=O)c3c(Cl)cccc3Cl)n(C(c3ccccc3)c3ccccc3)c3ccc(Cl)cc23)cc1 [Example 160, 4-{2-[1-benzhydryl-5-chloro-2-(2-{[(2,6-dichlorophenyl)sulfonyl]amino}ethyl)-1H-indol-3-yl]ethoxy}benzoic acid]	190
O=C(O)c1ccc(OCCc2c(CCNS(=O)(=O)c3c(Cl)cc(Cl)cc3Cl)n(C(c3ccccc3)c3ccccc3)c3ccc(Cl)cc23)cc1 [Example 161, 4-{2-[1-benzhydryl-5-chloro-2-(2-{[(2,4,6-trichlorophenyl)sulfonyl]amino}ethyl)-1H-indol-3-yl]ethoxy}benzoic acid]	320
O=C(O)c1ccc(OCCc2c(CCNS(=O)(=O)c3ccccc3-c3ccccc3)n(C(c3ccccc3)c3ccccc3)c3ccc(Cl)cc23)cc1 [Example 164, 4-[2-(1-benzhydryl-2-{2-[(1,1′-biphenyl-2-ylsulfonyl)amino]ethyl}-5-chloro-1H-indol-3-yl)ethoxy]benzoic acid]	200
O=C(O)c1ccc(CCCc2c(CCNS(=O)(=O)c3cc(Cl)c(F)cc3F)n(C(c3ccccc3)c3ccccc3)c3ccc(Cl)cc23)cc1 [Example 166, 4-{3-[1-benzhydryl-5-chloro-2-(2-{[(5-chloro-2,4-difluorophenyl)sulfonyl]amino}ethyl)-1H-indol-3-yl]propyl}benzoic acid]	400

Further compounds by falling IC50, results first:

IC50 [nM]	Compound
1500	O=C(O)c1ccc(OCCc2c(CCNS(=O)(=O)CCN3CCC(O)CC3)n(C(c3ccccc3)c3ccccc3)c3ccc(Cl)cc23)cc1 [Example 123, 4-[2-(1-Benzhydryl-5-chloro-2-{2-[2-(4-hydroxy-piperidin-1-yl)-ethanesulfonylamino]-ethyl}-1H-indol-3-yl)-ethoxy]-benzoic acid]
980	Nc1ccccc1CS(=O)(=O)NCCc1c(CCOc2ccc(C(=O)O)cc2)c2cc(Cl)ccc2n1C(c1ccccc1)c1ccccc1 [Example 16]
530	O=C(O)c1ccc(OCCc2c(CCNS(=O)(=O)c3ccccc3Br)n(C(c3ccccc3)c3ccccc3)c3ccc(Cl)cc23)cc1 [Example 165, 4-{2-[1-benzhydryl-2-(2-{[(2-bromophenyl)sulfonyl]amino}ethyl)-5-chloro-1H-indol-3-yl]ethoxy}benzoic acid]
330	O=C(O)c1ccc(OCCc2c(CCNS(=O)(=O)Cc3cc(F)cc(F)c3)n(C(c3ccccc3)c3ccccc3)c3ccc(Cl)cc23)cc1 [Example 35, 4-{2-[1-benzhydryl-5-chloro-2-(2-{[(3,5-difluorobenzyl)-sulfonyl]amino}ethyl)-1H-indol-3-yl]ethoxy}benzoic acid]
300	NCc1ccccc1S(=O)(=O)NCCc1c(CCOc2ccc(C(=O)O)cc2)c2cc(Cl)ccc2n1C(c1ccccc1)c1ccccc1 [Example 163, 4-(2-{2-[2-({[2-(aminomethyl)phenyl]sulfonyl}amino)ethyl]-1-benzhydryl-5-chloro-1H-indol-3-yl}ethoxy)benzoic acid]
200	O=C(O)c1ccc(CCCc2c(CCNS(=O)(=O)c3ccccc3-c3ccccc3)n(C(c3ccccc3)c3ccccc3)c3ccc(Cl)cc23)cc1 [Example 157, 4-[3-(1-benzhydryl-2-{2-[(1,1′-biphenyl-2-ylsulfonyl)amino]ethyl}-5-chloro-1H-indol-3-yl)propyl]benzoic acid]
190	COc1cc(C)ccc1S(=O)(=O)NCCc1c(CCCc2ccc(C(=O)O)cc2)c2cc(Cl)ccc2n1C(c1ccccc1)c1ccccc1 [Example 167, 4-{3-[1-benzhydryl-5-chloro-2-(2-{[(2-methoxy-4-methylphenyl)sulfonyl]amino}ethyl)-1H-indol-3-yl]propyl}benzoic acid]
170	O=C(O)CCc1ccc(S(=O)(=O)CCc2c(CCNS(=O)(=O)Cc3ccccc3)n(C(c3ccccc3)c3ccccc3)c3ccc(Cl)cc23)cc1 [Example 130, 3-(4-{[2-(1-Benzhydryl-2-{2-[(benzylsulfonyl)amino]ethyl}-5-chloro-1H-indol-3-yl)ethyl]sulfonyl}phenyl)propanoic acid]
130	O=C(O)CCc1ccc(S(=O)(=O)CCc2c(CCNS(=O)(=O)Cc3ccc(Cl)c(Cl)c3)n(C(c3ccccc3)c3ccccc3)c3ccc(Cl)cc23)cc1 [Example 129, 3-[4-({2-[1-benzhydryl-5-chloro-2-(2-{[(3,4-dichlorobenzyl)sulfonyl]amino}ethyl)-1H-indol-3-yl]ethyl}sulfonyl)phenyl] propanoic acid]
